# Laboratory results from US6750244B2, “Compounds active at a novel site on receptor-operated calcium channels useful for treatment of neurological disorders and diseases” (NPS Pharmaceuticals, Inc., priority 1993, dated 2004).
# “Also recorded” adds a separate entry of the source. Like-named read-outs stand apart in the source and are kept apart here.
# How the values were obtained:
# [1] = test system: PBQ-elicited writhing; type: in vivo; details: 16 mg/kg i.p.
# Experimental: In the first series of experiments, the animals were administered an unpleasant stimulus (2-phenyl-1,4-benzoquinone, PBQ) which elicits a writhing response (abdominal stretching). Typically, the number of writhes occurring in a 5 min observation period is recorded. […] Nonsteroidal antiinflammatory agents are likewise effective in this model.
# [2] = test system: T1, L-type calcium channel; assay: Inhibition of KCl depolarization-induced increases in intracellular calcium in cultured rat cerebellar granule cells; type: cell-based; details: cultured rat cerebellar granule cells; read-out: L-type calcium channel: estimated IC50, KCl depolarization-induced increases in intracellular calcium
# T1 construct: L-type calcium channel: estimated IC50, KCl depolarization-induced increases in intracellular calcium; other: cultured
# Source text: The ability of arylalkylamines to inhibit dihydropyridine-sensitive Ca^2+ channels was examined in cerebellar granule cells and a rat aortic smooth muscle cell line, A7r5 cells.
# [3] = test system: PCP-like stereotypic behavior; assay: PCP-like stereotypic behavior (hyperexcitability and head weaving) in rats; details: 30 mg/kg i.p.
# Source text: We investigated whether the arylalkylamines would elicit such behaviors.
# [4] = test system: delayed rectifier potassium channel; assay: Inhibition of delayed rectifier potassium channel in cultured N1E-115 neuroblastoma cells; type: cell-based; details: read-out: Delayed rectifier potassium channel: estimated IC50
# [5] = test system: induction of LTP; design: species or system rat; details: at 100 μM
# [6] = test system: NMDA receptor; details: rat hippocampal slices
# Experimental: Glutamate-mediated transmission at synapses of Schaffer collateral fibers and CA1 pyramidal cells was measured in slices of rat brain containing the hippocampus. This assay measures electrophysiologically the postsynaptic depolarization caused by the presynaptic release of glutamate, and can readily distinguish synaptic transmission mediated by NMDA or AMPA receptors.
# [7] = test system: thermal nociception; type: in vivo, mice; details: 16 mg/kg i.p.
# [8] = target: NMDA receptor-ionophore complex (site labeled by [3H]MK-801); assay: Inhibition of [3H]MK-801 binding in rat cortical/hippocampal washed membrane preparations; details: read-out: IC50 (μM) vs. [3H]MK-801; rat cortical/hippocampal washed membranes
# [9] = test system: NMDA receptor; assay: Inhibition of NMDA/glycine-induced increases in intracellular calcium in cultured rat cerebellar granule cells (RCGC); type: cell-based; details: NMDA/glycine-induced increases in intracellular calcium, cultured rat cerebellar granule cells; read-out: IC50 (μM) vs. NMDA
# [10] = test system: central muscarinic cholinergic receptor; type: binding, rat
# [11] = test system: PCP-like discriminative stimulus effects; type: in vivo, rats; details: i.p., rats
# Source text: In this assay, rats who have been trained to lever press for food reinforcement must select which of two levers in their cages is correct. The only stimulus they hive for selecting the correct lever is their ability to detect whether they received a PCP or vehicle injection After about two months of training, rats become very good at discriminating PCP from vehicle injections and can then be tested with other drugs to determine if they are discriminated as PCP. When tested in this procedure, other drugs which are known to produce a PCP-like intoxication substitute for PCP. These drugs include various PCP analogs such as ketamine and the noncompetitive NMDA receptor antagonist, MK-801.
# [12] = test system: mean arterial blood pressure; details: for no significant cardiovascular activity in anesthetized rats at doses up to: i.v.
# [13] = in vivo; details: mouse, in vivo, ip
# Experimental: (§1) In this assay, Frings and CF1 mice were injected with test compound and placed on a knurled rod which rotated at a speed of 6 rpm. The ability of the mice to maintain equilibrium for long periods of time was determined; those mice that were unable to maintain equilibrium on the rotorod for 1 min in each of 3 trials were considered impaired.
# [14] = test system: motor performance; assay: Acute motor impairment (rotorod) in mice
# Experimental: as §1
# [15] = test system: maximal electroshock-induced seizures; assay: Maximal electroshock-induced seizures in mice; type: in vivo; details: Mus musculus, mice
# [16] = Lethality (LD50) after oral administration in Frings mice; details: mouse, in vivo
# [17] = test system: sound-induced seizures; assay: Sound-induced seizures in Frings mice (reflex epilepsy); type: in vivo; details: Mus musculus, Frings mice
# [18] = test system: behavior; assay: Behavioral effects in conscious male NMRI mice
# [19] = test system: motor performance; assay: Motor toxicity (TD50) in rats; details: rats, oral, 25 mg/kg
# [20] = test system: neuronal vacuolization; details: i.p.
# [21] = target: T2, serotonin uptake site (Rattus norvegicus, UniProt P31652); assay: Serotonin uptake binding assay: [3H]citalopram binding to rat forebrain membranes
# T2 construct: from tissue; host or cells: rat forebrain membranes (per the assay title)
# [22] = target: T3, dopamine uptake site (Cavia porcellus, UniProt H0WCX4); assay: Dopamine uptake binding assay: [3H]WIN-35,428 binding to guinea pig striatal membranes
# T3 construct: from tissue; host or cells: guinea pig striatal membranes (per the assay title)
# [23] = test system: maximal electroshock-induced seizures; assay: Maximal electroshock-induced seizures in rats; type: in vivo; details: rats, oral, 25 mg/kg
# [24] = target: T4, norepinephrine uptake site (Rattus norvegicus, UniProt Q63380); assay: Norepinephrine uptake binding assay: [3H]desipramine binding to rat cortical membranes
# T4 construct: from tissue; host or cells: rat cortical membranes (per the assay title)
# [25] = test system: mean arterial pressure, heart rate, ECG; assay: Cardiovascular activity in conscious beagle dogs
# [26] = test system: chronic neuropathic pain; assay: Rat model of chronic neuropathic pain; type: in vivo, rats
# [27] = test system: thermal nociception; type: in vivo, rats; details: 25 mg/kg i.p.
# Experimental: In this standard assay, the thermal nociceptive stimulus was 52° C. warm water with the latency to tail flick or withdrawal taken as the endpoint.
# [28] = test system: focal ischemic stroke; assay: Rat model of focal ischemic stroke (vessel occlusion); type: in vivo, rats; details: i.p. 2 mg/kg 30 min prior to vessel occlusion and 2 mg/kg 3 hr post-occlusion
# [29] = test system: thermal nociception; type: in vivo, rats; details: 25 mg/kg i.p.; remark: listed apart in the source
# Experimental: In these experiments, a 52° C. hot plate was used as the nociceptive stimulus.
# [30] = test system: behavior; assay: Behavioral effects in conscious beagle dogs
# [31] = 3 mg/kg i.v. (60 sec bolus injection)
# [32] = 10 mg/kg i.v. (60 sec bolus injection)
# T3 sequence (H0WCX4 1-619): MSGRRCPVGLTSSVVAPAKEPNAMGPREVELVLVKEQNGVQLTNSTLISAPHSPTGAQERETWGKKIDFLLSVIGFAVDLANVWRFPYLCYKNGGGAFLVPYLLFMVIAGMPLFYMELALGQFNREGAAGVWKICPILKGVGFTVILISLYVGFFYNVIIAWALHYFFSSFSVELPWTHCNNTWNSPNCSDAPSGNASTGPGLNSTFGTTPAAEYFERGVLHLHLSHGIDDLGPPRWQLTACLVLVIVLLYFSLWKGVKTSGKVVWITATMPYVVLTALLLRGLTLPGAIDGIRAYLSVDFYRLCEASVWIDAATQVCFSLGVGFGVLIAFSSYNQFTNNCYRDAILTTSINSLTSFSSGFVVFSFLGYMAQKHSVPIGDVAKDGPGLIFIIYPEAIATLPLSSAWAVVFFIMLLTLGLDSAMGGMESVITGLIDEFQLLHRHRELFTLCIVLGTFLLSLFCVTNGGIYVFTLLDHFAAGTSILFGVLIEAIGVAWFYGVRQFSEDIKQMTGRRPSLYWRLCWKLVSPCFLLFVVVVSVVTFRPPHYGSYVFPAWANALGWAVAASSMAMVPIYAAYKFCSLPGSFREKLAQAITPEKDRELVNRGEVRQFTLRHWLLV
# T4 sequence (Q63380 1-617): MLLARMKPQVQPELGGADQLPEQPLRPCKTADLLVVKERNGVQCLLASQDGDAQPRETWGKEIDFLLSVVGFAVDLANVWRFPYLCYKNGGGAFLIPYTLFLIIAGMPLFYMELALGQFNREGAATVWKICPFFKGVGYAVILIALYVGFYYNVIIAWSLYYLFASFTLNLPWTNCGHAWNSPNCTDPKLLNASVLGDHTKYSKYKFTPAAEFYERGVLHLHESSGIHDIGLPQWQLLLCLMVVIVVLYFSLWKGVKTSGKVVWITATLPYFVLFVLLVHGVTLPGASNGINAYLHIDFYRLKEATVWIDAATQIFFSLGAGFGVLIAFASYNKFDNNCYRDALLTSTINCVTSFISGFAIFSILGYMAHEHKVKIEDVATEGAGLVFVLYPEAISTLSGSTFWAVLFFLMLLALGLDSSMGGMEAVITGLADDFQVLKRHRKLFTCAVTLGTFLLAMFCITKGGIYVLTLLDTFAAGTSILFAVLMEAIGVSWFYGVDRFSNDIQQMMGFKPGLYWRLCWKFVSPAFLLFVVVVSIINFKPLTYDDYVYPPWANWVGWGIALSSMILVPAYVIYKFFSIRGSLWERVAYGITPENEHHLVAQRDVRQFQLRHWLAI
# T2 sequence (P31652 whole entry): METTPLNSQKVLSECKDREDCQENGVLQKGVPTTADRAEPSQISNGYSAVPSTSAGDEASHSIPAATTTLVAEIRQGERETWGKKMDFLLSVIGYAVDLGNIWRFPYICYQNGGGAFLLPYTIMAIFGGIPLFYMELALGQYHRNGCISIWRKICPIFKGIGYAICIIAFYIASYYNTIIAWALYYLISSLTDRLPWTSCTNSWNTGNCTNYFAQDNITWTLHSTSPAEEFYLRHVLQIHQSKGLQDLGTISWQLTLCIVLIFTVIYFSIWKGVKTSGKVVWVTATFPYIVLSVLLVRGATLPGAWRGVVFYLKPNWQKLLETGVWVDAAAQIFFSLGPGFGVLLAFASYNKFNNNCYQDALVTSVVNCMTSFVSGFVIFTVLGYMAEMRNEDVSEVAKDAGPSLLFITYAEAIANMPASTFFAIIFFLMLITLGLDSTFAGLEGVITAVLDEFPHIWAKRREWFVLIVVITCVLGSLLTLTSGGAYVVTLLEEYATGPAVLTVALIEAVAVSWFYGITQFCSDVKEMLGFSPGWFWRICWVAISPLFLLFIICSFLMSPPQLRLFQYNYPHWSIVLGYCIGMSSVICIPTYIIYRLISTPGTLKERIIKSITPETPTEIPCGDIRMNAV
smiles,measurement,setting,value
"NCCC(c1ccccc1)c1ccccc1 [Compound 19, 3,3-diphenylpropylamine]",analgesic activity in the PBQ-induced writhing assay,[1],significant analgesic activity
same,IC50,[2],10200 nM
same,PCP-like stereotypic behavior (hyperexcitability and head weaving),[3],no PCP-like stereotypic behavior
same,IC50,[4],1000 to 10000 nM
same,LTP Assay (block of the induction of LTP),[5],did block; also recorded: block at 100
same,Suppression of NMDA Receptor-Mediated Synaptic Transmission (concentration which suppresses),[6],100 to 300 µM
same,analgesic activity in the hot-plate assay,[7],significant analgesic activity
same,IC50,[8],2.1 µM
same,IC50,[9],0.435 µM
same,Central muscarinic cholinergic receptor: percent block of [3H]QNB binding,[10]; at 0.1 μM,4% at
same,Central muscarinic cholinergic receptor: percent block of [3H]QNB binding,[10]; at 10 μM,0.174%
same,no generalization to PCP at doses up to the behaviorally active dose of,[11],≤ 30 mg/kg
same,without effect on blood pressure at doses up to,"[12]; s.c., rats",up to 100 mg/kg
same,TD50,[13],43.8 mg/kg
same,motor impairment,"[14]; mice, 30 mg/kg p.o.",motor impairment
same,ED50,[15]; ip,26.4 mg/kg
same,ED50,[15]; oral (p.o.),35 mg/kg
"CC(N)CC(c1cccc(F)c1)c1cccc(F)c1 (stereo not drawn) [Compound 22, 3,3-bis(3-fluorophenyl)-1-methyl-1-propylamine]",LD50,[16],18.3 mg/kg
same,ED50,[17]; ip,4.9 mg/kg
same,ED50,[17]; oral,5.1 mg/kg
same,IC50,[8],3.45 µM
same,IC50,[9],0.145 µM
same,no significant cardiovascular activity in anesthetized rats at doses up to,[12],≤ 4.47 mg/kg
same,TD50 (inverted grid),"[14]; Frings mice, i.p.",26.8 mg/kg
"C[C@@H](CN)C(c1cccc(F)c1)c1cccc(F)c1 [Compound 33, 3,3-bis(3-fluorophenyl)-2-methyl-1-propylamine]",behavioral effects,[18]; 8 mg/kg i.p.,"excitation, increased reactivity to touch, and hypothermia"
same,behavioral effects,[18]; 64 mg/kg i.p.,convulsions
same,behavioral effects,[18]; 2 and 4 mg/kg i.p.,no behavioral effects
same,behavioral effects,[18]; 16 and 32 mg/kg i.p.,"excitation, Straub tail, tremor, jumping, stereotypies, hypothermia, and mydriasis"
same,behavioral effects,[18]; 128 and 256 mg/kg i.p.,convulsions and death
same,motor toxicity,[19],no motor toxicity apparent
same,ED50,[17]; ip,4.6 mg/kg
same,dose without neuronal vacuolization,[20],30 mg/kg
same,"Monoamine uptake binding assays: serotonin uptake binding assay, percent block",[21]; at 0.1 μM,10^g14% at
same,"Monoamine uptake binding assays: serotonin uptake binding assay, percent block",[21]; at 10 μM,0.1^h89% at
same,"Monoamine uptake binding assays: dopamine uptake binding assay, percent block",[22]; at 0.1 μM,23% at
same,"Monoamine uptake binding assays: dopamine uptake binding assay, percent block",[22]; at 10 μM,0.1^f86% at
same,IC50,[2],1600 nM
same,IC50,[4],> 10000 nM
same,IC50,[8],0.181 µM
same,IC50,[9],0.06 µM
same,anticonvulsant activity against maximal electroshock-induced seizures,[23],significant anticonvulsant activity
same,"Monoamine uptake binding assays: norepinephrine uptake binding assay, percent block",[24]; at 0.1 μM,10^f2% at
same,"Monoamine uptake binding assays: norepinephrine uptake binding assay, percent block",[24]; at 10 μM,0.1^g54% at
same,cardiovascular activity,[25]; 0.3 mg/kg i.v. (60 sec bolus injection),no significant cardiovascular activity
same,mean arterial pressure,[25]; 1 mg/kg i.v. (60 sec bolus injection),transient increases in mean arterial pressure
same,mean arterial pressure,[25]; [31],larger magnitude and longer duration effects
same,heart rate,[25]; [32],a transient increase in heart rate
same,mean arterial pressure,[25]; [32],larger magnitude and longer duration effects
same,changes in the ECG,[25]; doses up to 10 mg/kg i.v. (60 sec bolus injection),no significant drug-induced changes in the ECG
same,Central muscarinic cholinergic receptor: percent block of [3H]QNB binding,[10]; at 0.1 μM,42% at
same,Central muscarinic cholinergic receptor: percent block of [3H]QNB binding,[10]; at 10 μM,0.199% at
same,"analgesic activity, chronic neuropathic pain","[26]; i.p., doses of 3-10 mg/kg",significant analgesic activity
same,"analgesic activity, chronic neuropathic pain","[26]; i.th., doses ranging from 15 to 80 μg",significant analgesic activity
same,"analgesic activity, rat 48° C. tail flick test",[27],no significant analgesic activity
same,neuroprotectant activity in a rat model of focal ischemic stroke,[28],significant neuroprotectant activity
same,no significant cardiovascular activity in anesthetized rats at doses up to,[12],up to 3 mg/kg
same,"analgesic activity, rat 52° C. hot plate test",[29],no significant analgesic activity
same,TD50,[13]; Frings,27.8 mg/kg
same,behavioral effects,[30]; [31],licking of the mouth
same,behavioral effects,[30]; [32],"dilated pupils, whole body tremors, incoordination, licking of the mouth, salivation, and panting"
